Laboratory results as given in patent US4487927A, “3-Phosphonium and 3-phosphoranylidenecephems” (Fujisawa Pharmaceutical Co., Ltd., priority 1979, dated 1984).
In brackets after ≈: the same amount, converted by molar mass.

Tests used:
[1] = tested on: Batilus subtilis ATCC 6633; assay: In vitro antimicrobial activity, two-fold agar-plate dilution method (MIC); assay type: cell-based; conditions: 37° C. for 20 hours, HI-agar; for MIC: 20 h, read-out: minimal inhibitory concentration (MIC)
Procedure: (§1) In vitro Antimicrobial activity was determined by the two-fold agar-plate dilution method as described below.
(§2) One loopful of an overnight culture of each test strain in Tripticase-soy broth (approximately 10^8 viable cells per ml) was streaked on heart infusion agar (HI-agar containing graded concentrations of antimicrobial agents, and the minimal inhibitory concentration (MIC) was expressed in term of μg/ml after incubation at 37° C. for 20 hours.

[2] = tested on: Staphylococcus aureus 209P JC-1; assay: as above; assay type: cell-based; conditions: 37° C. for 20 hours, HI-agar; for MIC: Staphylococcus aureus, 209P, 20 h, read-out: minimal inhibitory concentration (MIC)
Procedure: as §1, §2

[3] = Determination of serum levels after oral administration in rats (disc method); assay type: in vivo, SD strain; conditions: rat, 100 mg/kg orally, fasted male SD rats, read-out: Mean Serum Level
Procedure: (2) Test 2: Determination of serum levels after oral administration of anti-microbial agents in rats
6 weeks old male rats, SD strain, each weighing 160-230 g.
The test compound A (100 mg/kg) was given orally to rats which had been fasted overnight. At specified intervals, the rats were anethetized with chloroform and blood samples were collected from the heart. The anti-microbial levels in each serum sample were determined by the disc method using standard solutions prepared with serum from rats.

Escherichia coli 29 = assay: Protecting effect in experimental mice infection; assay type: in vivo, ICR strain; Escherichia coli; conditions: Escherichia coli 29 injected intraperitoneally; oral dose one hour after injection; 4 days observation; probit method
Text: (3) Test 3: Protecting effect in experimental mice infection 4-weeks old male mice, ICR strain, each weighing 20.0±1.5 g. 1.3×10^4 cells of pathogenic microorganisms, suspended in 2.5% mucin, were intraperitoneally injected. One hour after the injection, Compound A was orally given.

Proteus mirabilis 18 = assay: In vitro antimicrobial activity, two-fold agar-plate dilution method (MIC); assay type: cell-based; conditions: 37° C. for 20 hours, HI-agar, read-out: minimal inhibitory concentration (MIC)
Procedure: as §1, §2

Proteus mirabilis 1 = assay: as above; assay type: cell-based; conditions: 37° C. for 20 hours, HI-agar, read-out: minimal inhibitory concentration (MIC)
Procedure: as §1, §2

Proteus vulgaris 2 = assay: as above; assay type: cell-based; conditions: 37° C. for 20 hours, HI-agar, read-out: minimal inhibitory concentration (MIC)
Procedure: as §1, §2

MIC [1] [µg/mL] | MIC [2] [µg/mL] | MIC (Proteus mirabilis 18) [µg/mL] | MIC (Proteus mirabilis 1) [µg/mL] | SMILES | further results
0.1 (≈ 0.221 µM) | 1.56 (≈ 3.45 µM) | – | – | C=CC1=C(C(=O)O)N2C(=O)C(NC(=O)[C@H](N)c3cccc(NS(C)(=O)=O)c3)[C@H]2SC1 (stereo partly drawn) [Compound A, 7-[2-(3-Methanesulfonamidophenyl)-D-glycinamido]-3-vinyl-3-cephem-4-carboxylic acid] | concentration at 1 h ([3]; 1 hour): 38500 ng/mL; concentration at 2 h ([3]; 2 hours): 34900 ng/mL; concentration at 4 h ([3]; 4 hours): 31000 ng/mL; concentration at 6 h ([3]; 6 hours): 28800 ng/mL; ED50 value (Escherichia coli 29): 0.480 mg/mouse
– | 1.56 (≈ 4.26 µM) | – | – | C=CC1=C(C(=O)O)N2C(=O)C(NC(=O)Cc3csc(N)n3)[C@H]2SC1 (stereo partly shown) [Compound B, 7-[2-(2-Aminothiazol-4-yl)acetamido]-3-vinyl-3-cephem-4-carboxylic acid] | minimal inhibitory concentration (MIC) [1]: 1.56 µg/mL (≈ 4.26 µM)
0.78 (≈ 2.04 µM) | 1.56 (≈ 4.08 µM) | – | – | C=CC1=C(C(=O)O)N2C(=O)C(NC(=O)C(O)c3csc(N)n3)[C@H]2SC1 (stereo partly shown) [Compound C, 7-[2-(2-Aminothiazol-4-yl)glycolamido]-3-vinyl-3-cephem-4-carboxylic acid] | –
0.2 (≈ 0.507 µM) | 0.39 (≈ 0.989 µM) | – | – | C=CC1=C(C(=O)O)N2C(=O)C(NC(=O)Cc3cnc(NC=O)s3)[C@H]2SC1 (stereo partly shown) [Compound D, 7-[2-(2-Formamidothiazol-5-yl)acetamido]-3-vinyl-3-cephem-4-carboxylic aci d] | –
0.05 (≈ 0.136 µM) | 0.78 (≈ 2.13 µM) | – | – | C=CC1=C(C(=O)O)N2C(=O)C(NC(=O)Cc3cnc(N)s3)[C@H]2SC1 (stereo partly shown) [Compound E, 7-[2-(2-Aminothiazol-5-yl)acetamido]-3-vinyl-3-cephem-4-carboxylic acid] | –
0.39 (≈ 0.877 µM) | 1.56 (≈ 3.51 µM) | – | – | C=CC1=C(C(=O)O)N2C(=O)C(NC(=O)Cc3cnc(NS(C)(=O)=O)s3)[C@H]2SC1 (stereo partly shown) [Compound F, 7-[2-(2-Methanesulfonamidothiazol-5-yl)acetamido]-3-vinyl-3-cephem-4-carboxylic acid] | –
0.1 | 0.39 | – | – | Br.C=CC1=C(C(=O)O)N2C(=O)C(NC(=O)Cc3csc(NC(=N)N)n3)[C@H]2SC1 (stereo partly shown) [Compound G, 7-[2-(2-Guanidinothiazol-4-yl)acetamido]-3-vinyl-3-cephem-4-carboxylic aci d hydrobromide] | –
– | – | – | – | C=CC1=C(C(=O)O)N2C(=O)C(NC(=O)Cc3csc(N)n3)[C@H]2SC1 (stereo partly shown) [Compound H, 7-[2-(2-Aminothiazol-4-yl)acetamido]-3-vinyl-3-cephem-4-carboxylic acid] | minimal inhibitory concentration (MIC) [1]: 0.39 µg/mL (≈ 1.06 µM); minimal inhibitory concentration (MIC) [2]: 0.78 µg/mL (≈ 2.13 µM)
– | – | < 0.025 | 0.05 (≈ 0.122 µM) | C=CC1=C(C(=O)O)N2C(=O)C(NC(=O)/C(=N\OC)c3csc(N)n3)C2SC1 (stereo not drawn) [Compound I, 7-[2-(2-Aminothiazol-4-yl)-2-methoxyiminoacetamido]-3-vinyl-3-cephem-4-carboxylic acid (syn isomer)] | –
0.78 (≈ 1.84 µM) | 1.56 (≈ 3.68 µM) | – | – | C=CC1=C(C(=O)O)N2C(=O)C(NC(=O)/C(=N\OCC)c3csc(N)n3)C2SC1 (stereo not drawn) [Compound J, 7-[2-(2-Aminothiazol-4-yl)-2-ethoxyiminoacetamido]-3-vinyl-3-cephem-4-carboxylic acid (syn isomer)] | –
0.78 (≈ 1.63 µM) | 1.56 (≈ 3.25 µM) | – | – | C=CC1=C(C(=O)O)N2C(=O)C(NC(=O)/C(=N\OCCCCCC)c3csc(N)n3)C2SC1 (stereo not drawn) [Compound K, 7-[2-(2-Aminothiazol-4-yl)-2-hexyloxyiminoacetamido]-3-vinyl-3-cephem-4-carboxylic acid (syn isomer)] | –
– | – | 0.05 (≈ 0.0925 µM) | 0.05 (≈ 0.0925 µM) | C=CC1=C(C(=O)O)N2C(=O)C(NC(=O)/C(=N\OCC(=O)OC[C@H](N)C(=O)O)c3csc(N)n3)C2SC1 (stereo partly drawn) [Compound L, 7-[2-(2-Aminothiazol-4-yl)-2-(L-2-amino-2-carboxyethoxycarbonylmethoxyimino)acetamido]-3-vinyl-3-cephem-4-carboxylic acid (syn isomer)] | –
– | – | < 0.025 | < 0.025 | C=CC1=C(C(=O)O)N2C(=O)C(NC(=O)/C(=N\OCC(=O)O)c3csc(N)n3)C2SC1 (stereo not drawn) [Compound M, 7-[2-(2-Aminothiazol-4-yl)-2-carboxymethoxyiminoacetamido]-3-vinyl-3-cephem-4-carboxylic acid (syn isomer)] | –
– | – | 0.05 (≈ 0.102 µM) | 0.2 (≈ 0.41 µM) | C=CC1=C(C(=O)O)N2C(=O)C(NC(=O)/C(=N\OCC(=O)O)c3nc(N)sc3Cl)C2SC1 (stereo not drawn) [Compound N, 7-[2-(2-Amino-5-chlorothiazol-4-yl)-2-carboxymethoxyiminoacetamido]-3-vinyl-3-cephem-4-carboxylic acid (syn isomer)] | MIC (Proteus vulgaris 2): 0.05 µg/mL (≈ 0.102 µM)
– | – | 0.1 (≈ 0.209 µM) | 0.1 (≈ 0.209 µM) | C=CC1=C(C(=O)O)N2C(=O)C(NC(=O)/C(=N\OC/C=C/C(=O)O)c3csc(N)n3)C2SC1 (stereo not drawn) [Compound O, 7-[2-(2-Aminothiazol-4-yl)-2-(trans-3-carboxyallyloxyimino)acetamido]-3-vinyl-3-cephem-4-carboxylic acid (syn isomer)] | MIC (Proteus vulgaris 2): < 0.025 µg/mL
– | – | 0.05 (≈ 0.104 µM) | 0.1 (≈ 0.208 µM) | C=CC1=C(C(=O)O)N2C(=O)C(NC(=O)/C(=N\OCCCC(=O)O)c3csc(N)n3)C2SC1 (stereo not drawn) [Compound P, 7-[2-(2-Aminothiazol-4-yl)-2-(3-carboxypropoxyimino)acetamido]-3-vinyl-3-cephem-4-carboxylic acid (syn isomer)] | MIC (Proteus vulgaris 2): < 0.025 µg/mL
